Reference: patent publication US6770627B1, “Piperizine-4-phenyl derivatives as inhibitors of the interaction between mdm2 and p 53” (AstraZeneca AB, priority 1998, dated 2004)

Target: T1, p53/MDM2 interaction [MDM2 (1-118) 6 his and GST-p53(1-50)] (Homo sapiens, UniProt Q00987)
T1 construct: The human MDM2 N-terminal fragment encompassing amino acids 1-118; made in house; host or cells: E. coli BL21/DE3 (MDM2-6His); E. coli DH5alpha (GST-p53)
Assay: Measurement of the inhibition of p53/MDM2 interaction (modified ELISA)
Assay type: binding
Conditions: 75 nM GST-p53 coated, 75 nM MDM2-6His, NTA-AP detection, optical density at 405 nm, compounds tested between 0 and 100 μM
Protocol: The inhibition of the p53/MDM2 interaction by compounds was measured using a modified ELISA assay using a histidine tagged MDM2 [MDM2 (1-118) 6 his], a p53 GST fusion protein (GST-p53) and a nickel chelate-alkaline phosphatase (NTA-AP).
The human MDM2 N-terminal fragment encompassing amino acids 1-118 and immediately followed by a C-terminal 6-histidine tag sequence and then a stop codon was generated by PCR from a human placental cDNA library. The PCR product was initially cloned into pCR2.1 vector (Invitrogen) following the manufacturer's protocol. DNA sequencing confirmed a MDM fragment sequence identical to that of published MDM2 (EMBL accession no. Z12020). The MDM2-6His fragment was then subcloned into pTB375 E. coli expression vector to produce the expression vector pTB375-MDM2-6His (1-118) clone no. 11. The pTB375 vector is a modified T7 (Studier) Expression vector. Expression grows were performed in E. coli strain BL21/DE3 (obtained from Novagen Inc.) and expression of the recombinant protein was induced by addition of IPTG (isopropyl-β-D-1-thiogalactopyranoside). MDM2 (1-118) 6 his was purified from E. coli lysates using Ni-NTA beads (Qiagen). […]
100 μl of 75 nM GST-p53 was added per well to a 96 well plate (Nunc Maxisorp) and the plate left at 4° C. overnight. […] The optical density of each well was measured at 405 nm. […]

T1 sequence (Q00987 1-118): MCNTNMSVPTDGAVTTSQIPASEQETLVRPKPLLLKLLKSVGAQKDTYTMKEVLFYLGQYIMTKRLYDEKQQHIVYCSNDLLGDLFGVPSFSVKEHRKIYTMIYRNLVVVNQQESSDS

- IC50: ~4 µM
Compound: Cc1occc1C(=O)N[C@@H](Cc1c[nH]c2ccccc12)C(=O)N1CCN(c2ccc([N+](=O)[O-])cc2)CC1 [Example 9, 2-Methyl-3-furoyl-Trp-piperazine-4-nitrophenyl]
